Test results from the supplement of paper PMC10627819.

Columns and labels:
Test in all cases: fitness (endpoint OD595 vs no drug) (fraction); higher = more growth
[1] = test system: S. aureus DSM 20231
In short: (§1)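 Background-subtracted growth curves were the basis for fitness, taken as the optical density at entry into stationary phase over the robust mean of no-drug control wells. A cap of 1 was applied. The curves came from OD595 readings every 30 min for 14 h at 37 °C, in 384-well plates seeded at OD595 0.01 with 30 µl, or 55 µl for S. pneumoniae.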

[2] = test system: S. aureus Newman
In short: as §1

[3] = test system: S. pneumoniae D39V
In short: as §1

CO[C@@]12[C@H](COC(N)=O)C3=C(C(=O)C(C)=C(N)C3=O)N1C[C@@H]1N[C@@H]12 [Mitomycin C] + CN[C@H](CC(C)C)C(=O)N[C@H]1C(=O)N[C@@H](CC(N)=O)C(=O)N[C@H]2C(=O)N[C@H]3C(=O)N[C@H](C(=O)N[C@H](C(=O)O)c4cc(O)cc(O)c4-c4cc3ccc4O)[C@H](O)c3ccc(c(Cl)c3)Oc3cc2cc(c3O[C@@H]2O[C@H](CO)[C@@H](O)[C@H](O)[C@H]2O[C@H]2C[C@](C)(N)[C@H](O)[C@H](C)O2)Oc2ccc(cc2Cl)[C@H]1O [Vancomycin]
Details	fitness
[1], first compound 0.0156 µg/mL, partner 0.1875 µg/mL	0.741
[1], first compound 0.0156 µg/mL, partner 0.375 µg/mL	0.719
[1], first compound 0.0156 µg/mL, partner 0.75 µg/mL	0.708
[1], first compound 0.0312 µg/mL, partner 0.1875 µg/mL	0.705
[1], first compound 0.0312 µg/mL, partner 0.375 µg/mL	0.762
[1], first compound 0.0312 µg/mL, partner 0.75 µg/mL	0.751
[1], first compound 0.0625 µg/mL, partner 0.1875 µg/mL	0.592
[1], first compound 0.0625 µg/mL, partner 0.375 µg/mL	0.624
[1], first compound 0.0625 µg/mL, partner 0.75 µg/mL	0.624
[2], first compound 0.0156 µg/mL, partner 0.1875 µg/mL	0.747
[2], first compound 0.0156 µg/mL, partner 0.375 µg/mL	0.708
[2], first compound 0.0156 µg/mL, partner 0.75 µg/mL	0.733
[2], first compound 0.0312 µg/mL, partner 0.1875 µg/mL	0.719
[2], first compound 0.0312 µg/mL, partner 0.375 µg/mL	0.684
[2], first compound 0.0312 µg/mL, partner 0.75 µg/mL	0.65
[2], first compound 0.0625 µg/mL, partner 0.1875 µg/mL	0.56
[2], first compound 0.0625 µg/mL, partner 0.375 µg/mL	0.415
[2], first compound 0.0625 µg/mL, partner 0.75 µg/mL	0.411
[3], first compound 0.001075 µg/mL, partner 0.125 µg/mL	0.928
[3], first compound 0.001075 µg/mL, partner 0.25 µg/mL	0.629
[3], first compound 0.001075 µg/mL, partner 0.5 µg/mL	0.208
[3], first compound 0.002 µg/mL, partner 0.03125 µg/mL	0.951
[3], first compound 0.002 µg/mL, partner 0.0625 µg/mL	0.877
[3], first compound 0.002 µg/mL, partner 0.125 µg/mL	0.745
[3], first compound 0.00215 µg/mL, partner 0.125 µg/mL	0.869
[3], first compound 0.00215 µg/mL, partner 0.25 µg/mL	0.68
[3], first compound 0.00215 µg/mL, partner 0.5 µg/mL	0.202
[3], first compound 0.004 µg/mL, partner 0.03125 µg/mL	0.846
[3], first compound 0.004 µg/mL, partner 0.0625 µg/mL	0.836
[3], first compound 0.004 µg/mL, partner 0.125 µg/mL	0.667
[3], first compound 0.0043 µg/mL, partner 0.125 µg/mL	0.863
[3], first compound 0.0043 µg/mL, partner 0.25 µg/mL	0.592
[3], first compound 0.0043 µg/mL, partner 0.5 µg/mL	0.206
[3], first compound 0.008 µg/mL, partner 0.03125 µg/mL	0.727
[3], first compound 0.008 µg/mL, partner 0.0625 µg/mL	0.732
[3], first compound 0.008 µg/mL, partner 0.125 µg/mL	0.629

CO[C@@]12[C@H](COC(N)=O)C3=C(C(=O)C(C)=C(N)C3=O)N1C[C@@H]1N[C@@H]12 [Mitomycin C] + COc1c(N2C[C@@H]3CCCN[C@@H]3C2)c(F)cc2c(=O)c(C(=O)O)cn(C3CC3)c12 [Moxifloxacin]
Details	fitness
[1], first compound 0.0156 µg/mL, partner 0.0075 µg/mL	0.677
[1], first compound 0.0156 µg/mL, partner 0.015 µg/mL	0.675
[1], first compound 0.0156 µg/mL, partner 0.03 µg/mL	0.543
[1], first compound 0.0312 µg/mL, partner 0.0075 µg/mL	0.703
[1], first compound 0.0312 µg/mL, partner 0.015 µg/mL	0.624
[1], first compound 0.0312 µg/mL, partner 0.03 µg/mL	0.506
[1], first compound 0.0625 µg/mL, partner 0.0075 µg/mL	0.557
[1], first compound 0.0625 µg/mL, partner 0.015 µg/mL	0.504
[1], first compound 0.0625 µg/mL, partner 0.03 µg/mL	0.371
[2], first compound 0.0156 µg/mL, partner 0.0075 µg/mL	0.63
[2], first compound 0.0312 µg/mL, partner 0.0075 µg/mL	0.59
[2], first compound 0.0312 µg/mL, partner 0.03 µg/mL	0.0632
[2], first compound 0.0625 µg/mL, partner 0.0075 µg/mL	0.32
[2], first compound 0.0625 µg/mL, partner 0.03 µg/mL	0.0334
[3], first compound 0.001075 µg/mL, partner 0.0037 µg/mL	0.878
[3], first compound 0.001075 µg/mL, partner 0.0075 µg/mL	0.902
[3], first compound 0.001075 µg/mL, partner 0.015 µg/mL	0.869
[3], first compound 0.002 µg/mL, partner 0.005 µg/mL	0.895
[3], first compound 0.002 µg/mL, partner 0.01 µg/mL	0.902
[3], first compound 0.002 µg/mL, partner 0.02 µg/mL	0.769
[3], first compound 0.00215 µg/mL, partner 0.0037 µg/mL	0.846
[3], first compound 0.00215 µg/mL, partner 0.0075 µg/mL	0.805
[3], first compound 0.00215 µg/mL, partner 0.015 µg/mL	0.813
[3], first compound 0.004 µg/mL, partner 0.005 µg/mL	0.838
[3], first compound 0.004 µg/mL, partner 0.01 µg/mL	0.807
[3], first compound 0.004 µg/mL, partner 0.02 µg/mL	0.727
[3], first compound 0.0043 µg/mL, partner 0.0037 µg/mL	0.665
[3], first compound 0.0043 µg/mL, partner 0.0075 µg/mL	0.691
[3], first compound 0.0043 µg/mL, partner 0.015 µg/mL	0.666
[3], first compound 0.008 µg/mL, partner 0.005 µg/mL	0.673
[3], first compound 0.008 µg/mL, partner 0.01 µg/mL	0.72
[3], first compound 0.008 µg/mL, partner 0.02 µg/mL	0.637

fitness, [1], one replicate
Details	first compound 0.0156 µg/mL	first compound 0.0312 µg/mL	first compound 0.0625 µg/mL
partner 0.06 µg/mL	0.674	0.603	0.512
partner 0.12 µg/mL	0.413	0.302	0.198

CO[C@@]12[C@H](COC(N)=O)C3=C(C(=O)C(C)=C(N)C3=O)N1C[C@@H]1N[C@@H]12 [Mitomycin C] + COc1ccc(C[C@H](N)C(=O)N[C@H]2[C@@H](O)[C@H](n3cnc4c(N(C)C)ncnc43)O[C@@H]2CO)cc1 [Puromycin]
fitness
Details	first compound 0.001075 µg/mL	first compound 0.00215 µg/mL	first compound 0.0043 µg/mL	first compound 0.0156 µg/mL	first compound 0.0312 µg/mL	first compound 0.0625 µg/mL
[1], partner 0.39 µg/mL	–	–	–	0.759	0.758	0.593
[1], partner 0.78 µg/mL	–	–	–	0.776	0.78	0.638
[1], partner 1.56 µg/mL	–	–	–	0.752	0.699	0.582
[2], partner 0.39 µg/mL	–	–	–	0.79	0.651	0.552
[2], partner 0.78 µg/mL	–	–	–	0.766	0.704	0.604
[2], partner 1.56 µg/mL	–	–	–	0.764	0.662	0.494
[3], partner 1 µg/mL	0.986	0.968	0.867	–	–	–
[3], partner 2 µg/mL	0.935	0.915	0.781	–	–	–
[3], partner 4 µg/mL	0.798	0.775	0.654	–	–	–

fitness, one replicate
Details	first compound 0.002 µg/mL	first compound 0.004 µg/mL	first compound 0.008 µg/mL	first compound 0.0156 µg/mL	first compound 0.0312 µg/mL	first compound 0.0625 µg/mL
[1], partner 3.12 µg/mL	–	–	–	0.807	0.594	0.363
[1], partner 6.24 µg/mL	–	–	–	0.27	0.219	0.114
[3], partner 1 µg/mL	0.798	0.786	0.685	–	–	–
[3], partner 2 µg/mL	0.783	0.762	0.692	–	–	–
[3], partner 4 µg/mL	0.628	0.612	0.541	–	–	–
